Reference: patent US11014911B2, “CDK2 inhibitors” (Pfizer Inc., priority 2019, dated 2021)
pKi: −log10 of the molar value.

Tests used:
[1] = biological target: GSK3β (H350L) (Homo sapiens (Human), UniProt P49841); details: read-out: GSK3β Ki
Protocol: The assay was initiated with the addition of ATP, following 15 minutes pre-incubation of enzyme and inhibitor at room temperature in the reaction mixture. The reaction was stopped after 30 minutes at room temperature by the addition of 50 μL of 80 mM EDTA.

[2] = biological target: CDK2/Cyclin E1 full length (Homo sapiens (Human), UniProt P24941); experiment: CDK2/Cyclin E1 full length mobility shift assay; format: biochemical
Protocol: Cdk2/Cyclin E1 Full Length Mobility Shift Assay
Wild-type CDK2/wild-type full length Cyclin E1 enzyme complex was produced in-house (baculoviral expression, LJIC-2080/LJIC-2103) and phosphorylated by CDK7/Cyclin H1/Matl enzyme complex with CDK2:CDK7 ratio of 50:1 (concentration mg/mL) in the presence of 10 mM MgCl2 and 5 mM ATP at room temperature for one hour. […] The assay was initiated with the addition of ATP, following a fifteen minutes pre-incubation of enzyme and inhibitor at room temperature in the reaction mixture. The reaction was stopped after 45 minutes at room temperature by the addition of 50 μL of 80 mM EDTA.

Sequence of GSK3β (H350L) (P49841 whole entry, stated change not applied): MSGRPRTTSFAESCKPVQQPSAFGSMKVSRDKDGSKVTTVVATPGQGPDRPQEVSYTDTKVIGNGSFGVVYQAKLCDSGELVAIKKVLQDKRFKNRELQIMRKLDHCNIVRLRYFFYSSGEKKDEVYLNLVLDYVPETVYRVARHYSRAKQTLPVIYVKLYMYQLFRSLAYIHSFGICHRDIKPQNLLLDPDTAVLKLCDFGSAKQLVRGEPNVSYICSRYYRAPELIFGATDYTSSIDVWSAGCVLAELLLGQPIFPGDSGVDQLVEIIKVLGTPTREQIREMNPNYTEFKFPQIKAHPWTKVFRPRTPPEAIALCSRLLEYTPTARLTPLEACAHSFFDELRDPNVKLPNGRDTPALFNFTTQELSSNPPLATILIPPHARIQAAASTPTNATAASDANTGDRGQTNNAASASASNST

Structure (SMILES)	pKi [1]	pKi [2]
Cc1cnc(CC(=O)Nc2cc([C@H]3CC[C@@H](OC(=O)NC4(C)CC4)C3)[nH]n2)cn1 [Example 428, (1R,3S)-3-(3-{[(5-methylpyrazin-2-yl)acetyl]amino}-1H-pyrazol-5-yl)cyclopentyl (1-methylcyclopropyl)carbamate]	7.52	9.40
Cc1ccc(CC(=O)Nc2cc([C@@H]3CC[C@H](OC(=O)N[C@H]4CC[C@@H](O)CC4)C3)[nH]n2)nc1 [Example 546, (1S,3R)-3-(3-{[(5-methylpyridin-2-yl)acetyl]amino}-1H-pyrazol-5-yl)cyclopentyl (cis-4-hydroxycyclohexyl)carbamate]	8.45	8.73
Cc1ccc(CC(=O)Nc2cc([C@H]3CC[C@@H](OC(=O)NC4(C)CC4)C3)[nH]n2)nc1 [Example 424, (1R,3S)-3-(3-{[(5-methylpyridin-2-yl)acetyl]amino}-1H-pyrazol-5-yl)cyclopentyl (1-methylcyclopropyl)carbamate]	7.84	9.29
CC[C@H](C)NC(=O)O[C@@H]1CC[C@H](c2cc(NC(=O)Cc3ccc(COC)cc3S(C)(=O)=O)[nH]n2)C1 [Example 376, (1R,3S)-3-[5-({[4-(methoxymethyl)-2-(methylsulfonyl)phenyl]acetyl}amino)-1H-pyrazol-3-yl]cyclopentyl (2S)-butan-2-ylcarbamate]	7.00	9.40
COCCn1nccc1C(=O)Nc1cc([C@H]2CC[C@@H](OC(=O)NC(C)C)C2)[nH]n1 [Example 278, (1R,3S)-3-[3-({[1-(2-methoxyethyl)-1H-pyrazol-5-yl]carbonyl}amino)-1H-pyrazol-5-yl]cyclopentyl propan-2-ylcarbamate]	7.25	9.28
COc1ccc(CC(=O)Nc2cc([C@H]3CC[C@@H](OC(=O)N4CCC4(C)C)C3)[nH]n2)cn1 [Example 144]	8.90	10.00
CCNC(=O)O[C@@H]1CC[C@H](c2cc(NC(=O)Cc3ccc(C)nc3)n[nH]2)C1 [Example 227, (1R,3S)-3-(3-{[(6-methylpyridin-3-yl)acetyl]amino}-1H-pyrazol-5-yl)cyclopentyl ethylcarbamate]	7.72	8.92
CC[C@@H](C)NC(=O)O[C@H]1CC[C@@H](c2cc(NC(=O)Cc3ccno3)n[nH]2)C1 [Example 29]	7.70	9.80
O=C(Cc1cc(F)cc(F)c1)Nc1cc([C@@H]2CC[C@H](OC(=O)N[C@H]3CC[C@@H](O)CC3)C2)[nH]n1 [Example 27]	8.45	9.62
COc1ccc(CC(=O)Nc2cc([C@@H]3CC[C@H](OC(=O)N[C@H]4CC[C@H](O)CC4)C3)[nH]n2)nc1 [Example 557, (1S,3R)-3-(3-{[(5-methoxypyridin-2-yl)acetyl]amino}-1H-pyrazol-5-yl)cyclopentyl (trans-4-hydroxycyclohexyl)carbamate]	8.59	9.00
COc1ccc(S(C)(=O)=O)c(CC(=O)Nc2cc([C@H]3CC[C@@H](OC(=O)NC4(C)CC4)C3)[nH]n2)c1 [Example 447, (1R,3S)-3-[3-({[5-methoxy-2-(methylsulfonyl)phenyl]acetyl}amino)-1H-pyrazol-5-yl]cyclopentyl (1-methylcyclopropyl)carbamate]	< 7.32	9.44
CCCNC(=O)O[C@H]1CC[C@@H](c2cc(NC(=O)Cc3ccc(OC)nc3)n[nH]2)C1 [Example 21]	8.38	9.60
CC[C@H](C)NC(=O)O[C@@H]1CC[C@H](c2cc(NC(=O)Cc3cnn(C)c3)n[nH]2)C1 [Example 327, (1R,3S)-3-(3-{[(1-methyl-1H-pyrazol-4-yl)acetyl]amino}-1H-pyrazol-5-yl)cyclopentyl (2S)-butan-2-ylcarbamate]	7.24	9.36
Cc1cc(CC(=O)Nc2cc([C@@H]3CC[C@H](OC(=O)N[C@H]4CC[C@H](O)CC4)C3)[nH]n2)ccn1 [Example 547, (1S,3R)-3-(3-{[(2-methylpyridin-4-yl)acetyl]amino}-1H-pyrazol-5-yl)cyclopentyl (trans-4-hydroxycyclohexyl)carbamate]	8.44	9.21
Cc1coc(CC(=O)Nc2cc([C@H]3CC[C@@H](OC(=O)N[C@@H](C)CC(F)(F)F)C3)[nH]n2)n1 [Example 93]	8.12	9.66
CC[C@H](C)NC(=O)O[C@@H]1CC[C@H](c2cc(NC(=O)Cc3cnn(C(C)C)c3)n[nH]2)C1 [Example 349, (1R,3S)-3-[3-({[1-(propan-2-yl)-1H-pyrazol-4-yl]acetyl}amino)-1H-pyrazol-5-yl]cyclopentyl (2S)-butan-2-ylcarbamate]	7.24	9.40
COc1cc(CC(=O)Nc2cc([C@@H]3CC[C@H](OC(=O)N[C@H]4CC[C@@H](O)CC4)C3)[nH]n2)ccn1 [Example 552, (1S,3R)-3-(3-{[(2-methoxypyridin-4-yl)acetyl]amino}-1H-pyrazol-5-yl)cyclopentyl (cis-4-hydroxycyclohexyl)carbamate]	8.62	9.54

Now from value to compound:

pKi [1]	pKi [2]	Structure (SMILES)
< 6.72	8.64	CCCNC(=O)O[C@@H]1CC[C@H](c2cc(NC(=O)c3cc(C)nn3C)n[nH]2)C1 [Example 173, (1R,3S)-3-(3-{[(1,3-dimethyl-1H-pyrazol-5-yl)carbonyl]amino}-1H-pyrazol-5-yl)cyclopentyl propylcarbamate]
7.52	9.59	Cc1cnc(CC(=O)Nc2cc([C@H]3CC[C@@H](OC(=O)NC(C)(C)C)C3)[nH]n2)cn1 [Example 299, (1R,3S)-3-(3-{[(5-methylpyrazin-2-yl)acetyl]amino}-1H-pyrazol-5-yl)cyclopentyl tert-butylcarbamate]
8.25	10.22	COc1cc(CC(=O)Nc2cc([C@H]3CC[C@@H](OC(=O)N4[C@@H](C)C[C@@H]4C)C3)[nH]n2)ccn1 [Example 149]
7.95	9.80	Cc1ncc(CC(=O)Nc2cc([C@H]3CC[C@@H](OC(=O)NC(C)(C)C)C3)[nH]n2)s1 [Example 113]
7.34	8.60	CCCNC(=O)O[C@@H]1CC[C@H](c2cc(NC(=O)Cc3cnc(C)o3)n[nH]2)C1 [Example 176, (1R,3S)-3-(3-{[(2-methyl-1,3-oxazol-5-yl)acetyl]amino}-1H-pyrazol-5-yl)cyclopentyl propylcarbamate]
7.03	8.80	CC[C@H](C)NC(=O)O[C@@H]1CC[C@H](c2cc(NC(=O)Cc3cc(C)nn3C)n[nH]2)C1 [Example 338, (1R,3S)-3-(3-{[(1,3-dimethyl-1H-pyrazol-5-yl)acetyl]amino}-1H-pyrazol-5-yl)cyclopentyl (2S)-butan-2-ylcarbamate]
8.35	9.74	O=C(Cc1cc(F)cc(F)c1)Nc1cc([C@@H]2CC[C@H](OC(=O)N[C@H]3CC[C@H](O)CC3)C2)[nH]n1 [Example 28]
7.62	9.85	CC[C@H](C)NC(=O)O[C@@H]1CC[C@H](c2cc(NC(=O)Cc3cnc4ncnn4c3)n[nH]2)C1 [Example 39]
8.07	9.11	CO[C@@H]1CN(C(=O)O[C@@H]2CC[C@H](c3cc(NC(=O)Cc4cc(C)no4)n[nH]3)C2)[C@H]1C [Example 618, (1R,3S)-3-(3-{[(3-methyl-1,2-oxazol-5-yl)acetyl]amino}-1H-pyrazol-5-yl)cyclopentyl (2S,3R)-3-methoxy-2-methylazetidine-1-carboxylate]
7.98	9.40	C[C@H]1CCCN1C(=O)O[C@@H]1CC[C@H](c2cc(NC(=O)Cc3cnco3)n[nH]2)C1 [Example 629, (1R,3S)-3-{3-[(1,3-oxazol-5-ylacetyl)amino]-1H-pyrazol-5-yl}cyclopentyl (2S)-2-methylpyrrolidine-1-carboxylate]
7.62	9.68	CCC(C)(C)NC(=O)O[C@@H]1CC[C@H](c2cc(NC(=O)Cc3ncc(C)o3)n[nH]2)C1 [Example 62]
7.49	9.60	Cc1cnc(CC(=O)Nc2cc([C@H]3CC[C@@H](OC(=O)NC(C)(C)CC(F)(F)F)C3)[nH]n2)o1 [Example 95]
7.79	9.28	Cc1cnc(CC(=O)Nc2cc([C@H]3CC[C@@H](OC(=O)N4CCC[C@@H]4C)C3)[nH]n2)o1 [Example 635, (1R,3S)-3-(3-{[(5-methyl-1,3-oxazol-2-yl)acetyl]amino}-1H-pyrazol-5-yl)cyclopentyl (2S)-2-methylpyrrolidine-1-carboxylate]
7.80	9.60	CC1(C)CCN1C(=O)O[C@H]1CC[C@@H](c2cc(NC(=O)Cc3ccccc3S(C)(=O)=O)n[nH]2)C1 [Example 143]
7.41	9.17	COc1cnc(CC(=O)Nc2cc([C@H]3CC[C@@H](OC(=O)NC(C)(C)C)C3)[nH]n2)cn1 [Example 109]
7.31	8.81	CCNC(=O)O[C@@H]1CC[C@H](c2cc(NC(=O)Cc3ccc(OC)cc3)n[nH]2)C1 [Example 230, (1R,3S)-3-(3-{[(4-methoxyphenyl)acetyl]amino}-1H-pyrazol-5-yl)cyclopentyl ethylcarbamate]
< 7.32	9.77	COCc1cc(C(=O)Nc2cc([C@H]3CC[C@@H](OC(=O)N[C@@H](C)C4CC4)C3)[nH]n2)n(C)n1 [Example 104]
7.87	8.98	CCN(C)C(=O)O[C@H]1CC[C@@H](c2cc(NC(=O)Cc3ccnc(OC)c3)n[nH]2)C1 [Example 241, (1S,3R)-3-(3-{[(2-methoxypyridin-4-yl)acetyl]amino}-1H-pyrazol-5-yl)cyclopentyl ethyl(methyl)carbamate]
8.56	9.44	COc1ccc(CC(=O)Nc2cc([C@H]3CC[C@@H](OC(=O)N4C[C@@H](OC)[C@@H]4C)C3)[nH]n2)cn1 [Example 621, (1R,3S)-3-(3-{[(6-methoxypyridin-3-yl)acetyl]amino}-1H-pyrazol-5-yl)cyclopentyl (2S,3R)-3-methoxy-2-methylazetidine-1-carboxylate]
